Values quoted from earlier work in patent US20050255458A1, “Drug discovery assays based on the biology of chronic disease” (priority 2002, published 2005).
Several values for one entry are separate records, joined by “and”; a condition that tells them apart may be missing. Equal values may be shown once. Read-outs that look alike come from different tables or passages of the source.

Columns and labels:
Details in all cases: cited from earlier work
VCAM-1 = system: VCAM-1
monocytes on VCAM-1 = system: monocytes on VCAM-1
AR = AR (Homo sapiens, UniProt P10275)
Chain of AR (P10275 whole entry): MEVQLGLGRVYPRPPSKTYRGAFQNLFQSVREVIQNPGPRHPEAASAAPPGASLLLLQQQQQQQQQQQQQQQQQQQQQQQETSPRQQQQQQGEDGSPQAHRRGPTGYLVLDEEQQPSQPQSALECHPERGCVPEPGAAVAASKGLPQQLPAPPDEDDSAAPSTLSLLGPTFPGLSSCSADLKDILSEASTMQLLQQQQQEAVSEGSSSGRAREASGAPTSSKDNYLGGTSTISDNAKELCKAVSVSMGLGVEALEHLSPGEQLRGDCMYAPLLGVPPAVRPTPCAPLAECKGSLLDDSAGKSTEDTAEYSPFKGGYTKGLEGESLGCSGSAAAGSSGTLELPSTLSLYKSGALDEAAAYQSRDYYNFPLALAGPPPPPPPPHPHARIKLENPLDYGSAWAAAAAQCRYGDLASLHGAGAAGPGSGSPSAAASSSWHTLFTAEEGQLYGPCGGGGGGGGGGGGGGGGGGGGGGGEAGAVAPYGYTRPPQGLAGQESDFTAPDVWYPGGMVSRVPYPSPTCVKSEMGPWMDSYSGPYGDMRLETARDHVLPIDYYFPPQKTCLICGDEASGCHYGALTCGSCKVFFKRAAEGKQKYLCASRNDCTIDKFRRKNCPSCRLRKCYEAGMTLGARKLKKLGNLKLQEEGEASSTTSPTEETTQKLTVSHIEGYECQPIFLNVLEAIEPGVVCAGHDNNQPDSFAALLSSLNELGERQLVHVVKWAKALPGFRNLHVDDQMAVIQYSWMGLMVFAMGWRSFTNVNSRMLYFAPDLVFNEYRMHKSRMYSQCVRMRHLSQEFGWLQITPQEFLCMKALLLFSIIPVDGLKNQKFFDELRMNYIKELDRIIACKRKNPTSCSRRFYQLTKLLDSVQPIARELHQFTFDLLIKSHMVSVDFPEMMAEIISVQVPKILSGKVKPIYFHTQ

Row | Substance | average percent of monocyte remaining bound (VCAM-1; 8.5 dyn/cm^2, 0-6.99 minutes of stimulation, 1 ng/ml) [%] | average percent of monocyte remaining bound (VCAM-1; 8.5 dyn/cm^2, 7.0-13.99 minutes) [%] | average percent of monocyte remaining bound (VCAM-1; 8.5 dyn/cm^2, 14.0-30.0 minutes) [%] | average percent of monocyte remaining bound (VCAM-1; 36 dyn/cm^2, 0-6.99 minutes) [%] | average percent of monocyte remaining bound (VCAM-1; 36 dyn/cm^2, 14.0-30.0 minutes) [%] | Average velocity (monocytes on VCAM-1) [μm/min] | Bmax (AR)
1 | MCP-1: a chemokine | 51 | 67 | 31 | 36 | 16 | 2.43 ± 1.36 | –
2 | [^3H]methyltrienolone [[3H]methyltrienolone (R1881)] | – | – | – | – | – | – | 30.1 ± 4.3 fmol/mg protein and 26.8 ± 3.0 fmol/mg protein and 18.7 ± 4.4 fmol/mg protein
